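Exposure lasted 48 hours, with cells grown in 96-well plates and compounds tested at five concentrations. Definition used: TGI = concentration required for complete inhibition of growth.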
How the values were obtained:
Assay in all cases: NCI tumour cell line growth inhibition, 48 h
HOP-92 NSCLC = system: HOP-92 NSCLC
HCT-15 colon = system: HCT-15 colon
SW-620 colon = system: SW-620 colon
HS 578T breast = system: HS 578T breast
OVCAR-4 ovarian = system: OVCAR-4 ovarian
HCC-2998 colon = system: HCC-2998 colon
ACHN renal = system: ACHN renal
A549 NSCLC = system: A549 NSCLC
NCI-H522 lung = system: NCI-H522 lung
KM12 colon = system: KM12 colon

| SMILES | TGI (HOP-92 NSCLC) | TGI (HCT-15 colon) | TGI (SW-620 colon) | TGI (HS 578T breast) | TGI (OVCAR-4 ovarian) | TGI (HCC-2998 colon) | TGI (ACHN renal) | TGI (A549 NSCLC) | TGI (NCI-H522 lung) | TGI (KM12 colon) |
| --- | --- | --- | --- | --- | --- | --- | --- | --- | --- | --- |
| CN(C)c1cccc(NC2=NCCO2)c1 | > 100 µM | > 100 µM | > 100 µM | > 100 µM | > 100 µM | > 100 µM | > 100 µM | > 100 µM | > 100 µM | 78.6 µM |
| COc1ccc(/C=C/C2=NN(c3cccc(S(=O)(=O)O)c3)C3(C2)SCC(=O)N3c2nc3ccccc3s2)cc1 (stereo not given) | > 100 µM | > 100 µM | > 100 µM | > 100 µM | > 100 µM | > 100 µM | > 100 µM | > 100 µM | > 100 µM | > 100 µM |
| COc1cc(N(Cc2ccc3oc(=O)c(-c4ccccc4)nc3c2)Cc2ccc3oc(=O)c(-c4ccccc4)nc3c2)cc(OC)c1OC | > 10 µM | > 10 µM | > 10 µM | > 10 µM | > 10 µM | > 10 µM | > 10 µM | > 10 µM | > 10 µM | > 10 µM |
| C[Si](C)(C)C1=C([Si](C)(C)C)C(Cl)(Cl)C1=O | 5.55 µM | 4.05 µM | 13.2 µM | 55.7 µM | 12.5 µM | 17.6 µM | 4.9 µM | 49.7 µM | 3.6 µM | 18.9 µM |
| Cc1ccc2c(c1)C(=O)C(C1OC(=O)c3ccccc31)C2 (stereo not given) | > 100 µM | > 100 µM | > 100 µM | > 100 µM | > 100 µM | > 100 µM | > 100 µM | > 100 µM | > 100 µM | > 100 µM |
| O=[N+]([O-])c1ccc(O)c(/C=N/NC(=S)N2CCCCC2)c1 | 33 µM | 44.1 µM | > 59 µM | > 60 µM | 50.7 µM | 34.1 µM | 6.97 µM | > 100 µM | > 45.3 µM | 40 µM |
| O=C1Nc2ccccc2/C1=c1\[nH]c(=O)/c(=C\c2ccc(OCc3ccccc3)cn2)[nH]c1=O | 76.8 µM | > 100 µM | > 100 µM | 70.1 µM | > 100 µM | > 100 µM | > 100 µM | > 100 µM | > 100 µM | > 100 µM |
| COC(=O)c1ccc(Nc2nc3nc[nH]c3c(=O)[nH]2)cc1 | > 100 µM | > 100 µM | > 100 µM | > 100 µM | > 100 µM | > 100 µM | > 100 µM | > 100 µM | > 100 µM | > 100 µM |
| CCOc1cc(NC(C)=O)ccc1C(=O)NN1C(=O)CSC1c1ccccc1 (stereo not given) | > 100 µM | > 100 µM | > 100 µM | > 100 µM | > 100 µM | > 100 µM | > 100 µM | > 100 µM | > 100 µM | > 100 µM |
| c1cnc(N2CCN(Cc3c[nH]c4ccccc34)CC2)nc1 | > 100 µM | > 100 µM | > 100 µM | > 100 µM | > 100 µM | 38.9 µM | > 100 µM | > 100 µM | > 100 µM | 76.6 µM |
| O=C1c2cn[nH]c2C(c2ccccc2)N1c1ccccc1 (stereo not given) | > 10 µM | > 10 µM | > 10 µM | > 10 µM | > 10 µM | > 10 µM | > 10 µM | > 10 µM | > 10 µM | > 10 µM |
| CC(=O)N(O)c1ccc(-c2nc3ccccc3s2)cc1 | > 100 µM | > 100 µM | > 100 µM | > 100 µM | > 100 µM | > 100 µM | > 100 µM | > 100 µM | 97.2 µM | > 100 µM |
| C/C1=C\C=C(\C(C)C)CC/C(C(=O)O)=C\CC/C(C)=C/CC1 | 40.5 µM | 51.1 µM | > 100 µM | > 100 µM | > 100 µM | 33.8 µM | > 100 µM | > 100 µM | 39.5 µM | 41.8 µM |
| CC(=N\N)/C(C)=N/N=C(C)/C(C)=N/N=C(C)/C(C)=N/N | > 100 µM | > 100 µM | > 100 µM | > 100 µM | > 100 µM | > 100 µM | > 100 µM | > 100 µM | > 100 µM | > 100 µM |
| CC(=O)N1CCn2c1nc1cc(Cl)ccc12 | 81.4 µM | > 100 µM | > 100 µM | > 100 µM | > 100 µM | > 100 µM | > 100 µM | > 100 µM | > 100 µM | > 100 µM |
| N#C[C@H](c1nc2ccccc2s1)c1nc2ccccc2nc1Cl | 37.9 µM | 22.9 µM | > 100 µM | > 100 µM | 34.1 µM | 7.09 µM | 29.8 µM | > 100 µM | > 100 µM | > 100 µM |
| CCOC(=O)Oc1ccc2c(c1)c(=O)c1c(NCCN(CC)CC)ccc3nnn2c31 | 21.4 µM | 16.6 µM | 13.2 µM | 22.9 µM | 11.9 µM | 17.4 µM | 11.6 µM | 12.4 µM | 6.61 µM | 14.9 µM |
| CCc1nc2ccc(NCCN(C)C)c3c(=O)c4ccccc4n1c23 | 5.26 µM | 4.66 µM | 4.99 µM | 5.94 µM | 4.35 µM | 5.8 µM | 6.03 µM | 4.76 µM | 4.89 µM | 6.42 µM |
| COc1ccc(/C=N/n2cnc3[nH]c(C)c(Cc4ccccc4)c3c2=N)cc1 | > 100 µM | > 100 µM | > 100 µM | > 100 µM | > 100 µM | > 100 µM | > 100 µM | > 100 µM | > 100 µM | > 100 µM |
| COc1cc(C2c3cc4c(cc3OC(N3CCNCC3)C2C)OCO4)cc(OC)c1OC (stereo not given) | 24.8 µM | > 39.9 µM | 17.3 µM | 3.35 µM | 21.6 µM | 5.83 µM | 48.7 µM | > 53.9 µM | 8.32 µM | 9.87 µM |
| CC1(C)CC(=O)C2=C(C1)OC1=C(CC(C)(C)CC1=O)C2c1ccccc1[N+](=O)[O-] (stereo not given) | > 100 µM | > 100 µM | > 100 µM | > 100 µM | > 100 µM | > 100 µM | > 100 µM | > 100 µM | > 100 µM | > 100 µM |
| COc1ccc(-n2sc3ncccc3c2=O)cc1 | 58.6 µM | 44.2 µM | 79.6 µM | 62.8 µM | > 100 µM | > 100 µM | 34.5 µM | > 100 µM | 46.4 µM | 34.5 µM |
| CC1CC(=O)N(N(C)C)C(C#N)(C#N)C1(C#N)C#N (stereo not given) | 26 µM | 31.6 µM | 21.1 µM | 59.7 µM | 33.4 µM | 34.9 µM | 29.3 µM | > 74.2 µM | 7.73 µM | > 64.9 µM |

Reference: PubChem BioAssay (NCI)
